This note sets out measurements from patent US20230382926A1, “COMPOUNDS AND USES THEREOF” (The University of The West Indies, priority 2022, published 2023).

Bounds are passed on as bounds.

One experiment relates to P. aeruginosa. Kind of experiment: Rescue concentration of substituted phenyl azaindole derivatives. It is filed as cell-based. The following applies: Imipenem fixed at 1 μg/mL. The procedure: (§1) The antibiotic adjuvant activity of the SPazaBIMs were evaluated in combination with representative antibiotics (representing 13 antibiotic classes) against the 19 pathogens strains listed in Table 3. To assess the adjuvant properties of the SP-azaBIM molecules, a modified checkerboard minimum inhibitory concentration assay was used. A fixed concentration of the respective antibiotic (susceptible breakpoint concentration) was mixed with a twofold dilution series of the test SP-azaBIM (FIG. 1). This was to determine the concentration of SP-azaBIM needed potentiate the antibiotic at a clinically susceptible breakpoint concentration. Antibiotic susceptible breakpoint concentrations for the respective bacteria were determined using Clinical Laboratory Standards Institute (CLSI) criteria M100 ED31.
(§2) In this study, only those antibiotics to which the bacterial was classed as resistant were included in the adjuvant assays. In this assay we recorded the rescue concentration of the SP-BIM for a respective antibiotic. The rescue concentration was defined as the concentration of the adjuvant that reduces the minimum inhibitory concentration (MIC) of an antibiotic to the susceptibility breakpoint.
(§3) Immediately prior to testing, the respective antibiotic and SP-azaBIM was dissolved in sterile deionised water at 20× the required test concentration. Each microtiter well was then inoculated with 180 μl of bacterial inoculum of 10^6 CFU/ml in ca-MHB, and 10 μl each if the antibiotic and SP-azaBIM was added to the plates. These plates were then incubated at 35° C. for 24 h under aerobic conditions. A similar method was followed for the fastidious pathogens except that they were cultured in ca-MHB with 5% sheep blood and 5% CO2.
Bacterial growth was visually inspected after the incubation period and the rescue concentration of the test SP-azaBIM was determined as the lowest concentration of the compound needed to reduce bacterial growth by 99.99% at the susceptible breakpoint concentration of the antibiotic. […] If the bacteria can tolerate this concentration in vitro, then the bacteria has an intermediate or absolute resistance toward that antibiotic. […]
(§4) Phenyl azaindole compounds are also tested for their adjuvant activities and the method is shown in Example 39.

The subject of another experiment is K. pneumoniae. The experiment is described as above. It is filed as cell-based. To be noted: for Rescue concentration, K. pneumoniae Ciprofloxacin (1 μg/mL): Ciprofloxacin fixed at 1 μg/mL; for Rescue concentration, K. pneumoniae Imipenem (1 μg/mL): Imipenem fixed at 1 μg/mL. The procedure:
as §1, §2, §3
(§5) Bacterial growth was visually inspected after the incubation period and the rescue concentration of the test SP-azaBIM was determined as the lowest concentration of the compound needed to reduce bacterial growth by 99.99% at the susceptible breakpoint concentration of the antibiotic. For example, CLSI states that Pseudomonas aeruginosa is susceptible to the Imipenem if the MIC is ≤2 μg mL^−1. If the bacteria can tolerate this concentration in vitro, then the bacteria has an intermediate or absolute resistance toward that antibiotic. The goal was to determine the concentration of SP-azaBIM needed to cause P. aeruginosa death at 2 μg mL^−1 of Imipenem therefore restoring susceptibility of the bacteria to toward the antibiotic.
as §4

Experiment [1] relates to Carbapenem resistant Acinetobacter baumannii. As to the kind of experiment: Broth microdilution minimum inhibitory concentration. The experiment is classed as cell-based. To be noted: compound alone. The procedure:
(§6) Antibacterial activity of the synthesized compounds was determined following guidelines established by the Clinical and Laboratory Standards Institute M07-A10 (CLSI 2015), following the broth microdilution method. Briefly, the test articles were dissolved in 100% DMSO, diluted by 2-fold serial titrations in the same vehicle (100% DMSO), for a total of 11 concentrations. A 4 μL aliquot of each dilution was then added to 196 μL of broth medium seeded with the bacterial suspension in wells of a 96 well plate (bacterial count: 2×10^5 to 8×10^5 colony forming units/mL final). The highest test substance concentration was 1028 μg/mL, and the final vehicle concentration was 2 percent. Following incubation, the test plate was visually examined, and each well was scored for growth or complete inhibition of growth. The minimum inhibitory concentration was determined as the lowest concentration were no growth of the bacterial was observed. Each test article was assayed in duplicate.
(In general: Broth dilution looks for growth in wells or tubes with falling amounts of substance.)

The test system of experiment [2] is Multidrug resistant Pseudomonas aeruginosa. The experiment is described as above. It is filed as cell-based. To be noted: compound alone. On the procedure:
as §6

In experiment [3] the test system is Methicillin resistant Staphylococcus aureus. The experiment is described as above. It is filed as cell-based. The following applies: compound alone. The procedure: as §6
Experiment [4] concerns Vancomycin resistant Enterococcus faecalis. The description is as above. It is filed as cell-based. To be noted: compound alone. On the procedure: as §6
Experiment [5] relates to Carbapenem resistant Klebsiella pneumoniae. The description is as above. The experiment is classed as cell-based. The following applies: compound alone. On the procedure:
as §6

The test system of the next experiment is MRSA. As to the kind of experiment: Rescue concentration of substituted phenyl azaindole derivatives. It is filed as cell-based, Staphylococcus aureus. The following applies: Amoxicillin fixed at 2 μg/mL. The procedure:
as §1, §2, §3, §5, §4

Take `O=[N+]([O-])c1ccc(C(O)c2c[nH]c3cnc(Br)cc23)cc1` (stereo not drawn) [4NO2-5Br-6aza-OH, (5-bromo-1H-pyrrolo[2,3-c]pyridin-3-yl)(4-nitrophenyl)methanol]: the “Rescue concentration, P. aeruginosa Imipenem (1 μg/mL)” value in the experiment with P. aeruginosa is below 256 µg/mL. Also, the “Rescue concentration, K. pneumoniae Ciprofloxacin (1 μg/mL)” value with K. pneumoniae was below 256 µg/mL. For the same compound, the “Rescue concentration, K. pneumoniae Imipenem (1 μg/mL)” value with K. pneumoniae was below 256 µg/mL. Further, the MIC in experiment [1], in experiment [2], in experiment [3], in experiment [4] and in experiment [5] was below 1020 mg/L each time. In the experiment on MRSA, the “Rescue concentration, MRSA Amoxicillin (2 μg/mL)” value (“Rescue concentration … (2 μg/mL)” below) came out at 32 µg/mL.
In the case of `O=[N+]([O-])c1ccc(C(O)c2c[nH]c3c(Cl)nc(Br)cc23)cc1` (stereo not drawn) [4NO2-5Br-7Cl-6aza-OH, (5-bromo-7-chloro-1H-pyrrolo[2,3-c]pyridin-3-yl)(4-nitrophenyl)methanol], the “Rescue concentration, P. aeruginosa Imipenem (1 μg/mL)” value with P. aeruginosa was below 256 µg/mL. Also, the “Rescue concentration, K. pneumoniae Ciprofloxacin (1 μg/mL)” value in the experiment on K. pneumoniae was below 256 µg/mL. The “Rescue concentration, K. pneumoniae Imipenem (1 μg/mL)” value in the experiment on K. pneumoniae is below 256 µg/mL. In addition, the MIC in experiment [1], in experiment [2], in experiment [3], in experiment [4] and in experiment [5] was below 1020 mg/L throughout. Further, the “Rescue concentration … (2 μg/mL)” value in the experiment with MRSA amounted to 16 µg/mL.
With `O=[N+]([O-])c1ccc(C(O)c2c[nH]c3cnc(Cl)cc23)cc1` (stereo not drawn) [4NO2-5Cl-6aza-OH, (5-chloro-1H-pyrrolo[2,3-c]pyridin-3-yl)(4-nitrophenyl)methanol], the “Rescue concentration, P. aeruginosa Imipenem (1 μg/mL)” value in the experiment on P. aeruginosa worked out at 128 µg/mL. Also, the “Rescue concentration, K. pneumoniae Ciprofloxacin (1 μg/mL)” value in the experiment with K. pneumoniae is below 256 µg/mL. Further, the “Rescue concentration, K. pneumoniae Imipenem (1 μg/mL)” value in the experiment on K. pneumoniae was below 256 µg/mL. Further, the MIC in experiment [1], in experiment [2], in experiment [3], in experiment [4] and in experiment [5] was below 1020 mg/L throughout. In addition, in the experiment on MRSA, the “Rescue concentration … (2 μg/mL)” value is below 256 µg/mL.
Turning to `O=[N+]([O-])c1ccc(C(O)c2c[nH]c3ncc(Cl)cc23)cc1` (stereo not drawn) [4NO2-5Cl-7aza-OH, (5-chloro-1H-pyrrolo[2,3-b]pyridin-3-yl)(4-nitrophenyl)methanol], in the experiment with P. aeruginosa, the “Rescue concentration, P. aeruginosa Imipenem (1 μg/mL)” value is below 256 µg/mL. Moreover, in the experiment on K. pneumoniae, the “Rescue concentration, K. pneumoniae Ciprofloxacin (1 μg/mL)” value is below 256 µg/mL. In addition, in the experiment with K. pneumoniae, the “Rescue concentration, K. pneumoniae Imipenem (1 μg/mL)” value is below 256 µg/mL. Further, the MIC in experiment [1], in experiment [2], in experiment [3], in experiment [4] and in experiment [5] was below 1020 mg/L each time. Moreover, the “Rescue concentration … (2 μg/mL)” value with MRSA was 32 µg/mL.
Regarding `O=[N+]([O-])c1ccc(C(O)c2c[nH]c3ncc(F)cc23)cc1` (stereo not drawn) [4NO2-5Fl-7aza-OH, (5-fluoro-1H-pyrrolo[2,3-b]pyridin-3-yl)(4-nitrophenyl)methanol], the “Rescue concentration, P. aeruginosa Imipenem (1 μg/mL)” value in the experiment on P. aeruginosa was below 256 µg/mL. The “Rescue concentration, K. pneumoniae Ciprofloxacin (1 μg/mL)” value with K. pneumoniae was below 256 µg/mL. Moreover, the “Rescue concentration, K. pneumoniae Imipenem (1 μg/mL)” value in the experiment with K. pneumoniae is below 256 µg/mL. For the same compound, the MIC in experiment [1], in experiment [2], in experiment [3], in experiment [4] and in experiment [5] was below 1020 mg/L each time. Also, in the experiment on MRSA, the “Rescue concentration … (2 μg/mL)” value was 16 µg/mL.
As for `O=[N+]([O-])c1ccc(C(O)c2c[nH]c3c(Cl)nccc23)cc1` (stereo not drawn) [4NO2-7Cl-6aza-OH, (7-chloro-1H-pyrrolo[2,3-c]pyridin-3-yl)(4-nitrophenyl)methanol], the “Rescue concentration, P. aeruginosa Imipenem (1 μg/mL)” value with P. aeruginosa is below 256 µg/mL. For the same compound, in the experiment with K. pneumoniae, the “Rescue concentration, K. pneumoniae Ciprofloxacin (1 μg/mL)” value was below 256 µg/mL. The “Rescue concentration, K. pneumoniae Imipenem (1 μg/mL)” value in the experiment on K. pneumoniae was below 256 µg/mL. Besides, the MIC in experiment [1], in experiment [2], in experiment [3], in experiment [4] and in experiment [5] was below 1020 mg/L throughout. In addition, the “Rescue concentration … (2 μg/mL)” value in the experiment on MRSA worked out at 8 µg/mL.
As to `Oc1ccc(C(O)c2c[nH]c3cnc(Cl)cc23)cc1` (stereo not drawn) [4OH-5Cl-6aza-OH, 4-((5-chloro-1H-pyrrolo[2,3-c]pyridin-3-yl)(hydroxy)methyl)phenol], the “Rescue concentration, P. aeruginosa Imipenem (1 μg/mL)” value in the experiment on P. aeruginosa was below 256 µg/mL. Further, the “Rescue concentration, K. pneumoniae Ciprofloxacin (1 μg/mL)” value in the experiment with K. pneumoniae is below 256 µg/mL. Further, in the experiment on K. pneumoniae, the “Rescue concentration, K. pneumoniae Imipenem (1 μg/mL)” value was 256 µg/mL. Besides, the MIC in experiment [1], in experiment [2], in experiment [3], in experiment [4] and in experiment [5] was below 1020 mg/L throughout. Besides, the “Rescue concentration … (2 μg/mL)” value in the experiment on MRSA is 16 µg/mL.
As to `Oc1ccc(C(O)c2c[nH]c3ncc(F)cc23)cc1` (stereo not drawn) [4OH-5Fl-7aza-OH, 4-((5-fluoro-1H-pyrrolo[2,3-b]pyridin-3-yl)(hydroxy)methyl)phenol], the “Rescue concentration, P. aeruginosa Imipenem (1 μg/mL)” value with P. aeruginosa turned out to be 256 µg/mL. In addition, in the experiment on K. pneumoniae, the “Rescue concentration, K. pneumoniae Ciprofloxacin (1 μg/mL)” value was below 256 µg/mL. Also, the “Rescue concentration, K. pneumoniae Imipenem (1 μg/mL)” value in the experiment with K. pneumoniae is below 256 µg/mL. Also, the MIC in experiment [1], in experiment [2], in experiment [3], in experiment [4] and in experiment [5] was below 1020 mg/L throughout. Also, the “Rescue concentration … (2 μg/mL)” value with MRSA was 16 µg/mL.
In the case of `Oc1ccc(C(c2c[nH]c3cnc(Cl)cc23)c2c[nH]c3cnc(Cl)cc23)cc1` [4OH-Bis 5Cl 6aza, 4-(bis(5-chloro-1H-pyrrolo[2,3-c]pyridin-3-yl)methyl)phenol], in the experiment with P. aeruginosa, the “Rescue concentration, P. aeruginosa Imipenem (1 μg/mL)” value was below 256 µg/mL. Further, the “Rescue concentration, K. pneumoniae Ciprofloxacin (1 μg/mL)” value in the experiment on K. pneumoniae is below 256 µg/mL. The “Rescue concentration, K. pneumoniae Imipenem (1 μg/mL)” value in the experiment on K. pneumoniae was below 256 µg/mL. Besides, the MIC in experiment [1], in experiment [2], in experiment [3], in experiment [4] and in experiment [5] was below 1020 mg/L each time. Further, the “Rescue concentration … (2 μg/mL)” value in the experiment with MRSA came to 8 µg/mL.
In the case of `Oc1ccc(C(c2c[nH]c3ncc(Cl)cc23)c2c[nH]c3ncc(Cl)cc23)cc1` [4OH-Bis 5Cl 7aza, 4-(bis(5-chloro-1H-pyrrolo[2,3-b]pyridin-3-yl)methyl)phenol], the “Rescue concentration, P. aeruginosa Imipenem (1 μg/mL)” value in the experiment on P. aeruginosa was below 256 µg/mL. Besides, the “Rescue concentration, K. pneumoniae Ciprofloxacin (1 μg/mL)” value in the experiment on K. pneumoniae was below 256 µg/mL. For the same compound, the “Rescue concentration, K. pneumoniae Imipenem (1 μg/mL)” value with K. pneumoniae is below 256 µg/mL. The MIC in experiment [1], in experiment [2], in experiment [3], in experiment [4] and in experiment [5] was below 1020 mg/L each time. Moreover, the “Rescue concentration … (2 μg/mL)” value in the experiment with MRSA worked out at 2 µg/mL.
Take `O=[N+]([O-])c1ccccc1C(O)c1c[nH]c2cnccc12` (stereo not drawn) [Compound 2NO2-6aza-OH, (2-nitrophenyl)(1H-pyrrolo[2,3-c]pyridin-3-yl)methanol]: the “Rescue concentration, P. aeruginosa Imipenem (1 μg/mL)” value in the experiment on P. aeruginosa was below 256 µg/mL. Also, in the experiment with K. pneumoniae, the “Rescue concentration, K. pneumoniae Ciprofloxacin (1 μg/mL)” value came to 256 µg/mL. For the same compound, the “Rescue concentration, K. pneumoniae Imipenem (1 μg/mL)” value in the experiment with K. pneumoniae came to 128 µg/mL. Also, the MIC in experiment [1], in experiment [2], in experiment [3], in experiment [4] and in experiment [5] was below 1020 mg/L throughout. Further, the “Rescue concentration … (2 μg/mL)” value in the experiment on MRSA came to 256 µg/mL.

One may read the MIC as the lowest concentration found to suppress growth.
